Experimental data reported in article PMC6360668, “Discovery and evaluation of ZT55, a novel highly-selective tyrosine kinase inhibitor of JAK2^V617F against myeloproliferative neoplasms” (Journal of Experimental & Clinical Cancer Research : CR, 2019).

Target: JAK2 (Homo sapiens, UniProt O60674)
Assay: HTRF KinEASE cell-free kinase assay with recombinant human JAK2
Type: biochemical

Chain of JAK2 (O60674 whole entry): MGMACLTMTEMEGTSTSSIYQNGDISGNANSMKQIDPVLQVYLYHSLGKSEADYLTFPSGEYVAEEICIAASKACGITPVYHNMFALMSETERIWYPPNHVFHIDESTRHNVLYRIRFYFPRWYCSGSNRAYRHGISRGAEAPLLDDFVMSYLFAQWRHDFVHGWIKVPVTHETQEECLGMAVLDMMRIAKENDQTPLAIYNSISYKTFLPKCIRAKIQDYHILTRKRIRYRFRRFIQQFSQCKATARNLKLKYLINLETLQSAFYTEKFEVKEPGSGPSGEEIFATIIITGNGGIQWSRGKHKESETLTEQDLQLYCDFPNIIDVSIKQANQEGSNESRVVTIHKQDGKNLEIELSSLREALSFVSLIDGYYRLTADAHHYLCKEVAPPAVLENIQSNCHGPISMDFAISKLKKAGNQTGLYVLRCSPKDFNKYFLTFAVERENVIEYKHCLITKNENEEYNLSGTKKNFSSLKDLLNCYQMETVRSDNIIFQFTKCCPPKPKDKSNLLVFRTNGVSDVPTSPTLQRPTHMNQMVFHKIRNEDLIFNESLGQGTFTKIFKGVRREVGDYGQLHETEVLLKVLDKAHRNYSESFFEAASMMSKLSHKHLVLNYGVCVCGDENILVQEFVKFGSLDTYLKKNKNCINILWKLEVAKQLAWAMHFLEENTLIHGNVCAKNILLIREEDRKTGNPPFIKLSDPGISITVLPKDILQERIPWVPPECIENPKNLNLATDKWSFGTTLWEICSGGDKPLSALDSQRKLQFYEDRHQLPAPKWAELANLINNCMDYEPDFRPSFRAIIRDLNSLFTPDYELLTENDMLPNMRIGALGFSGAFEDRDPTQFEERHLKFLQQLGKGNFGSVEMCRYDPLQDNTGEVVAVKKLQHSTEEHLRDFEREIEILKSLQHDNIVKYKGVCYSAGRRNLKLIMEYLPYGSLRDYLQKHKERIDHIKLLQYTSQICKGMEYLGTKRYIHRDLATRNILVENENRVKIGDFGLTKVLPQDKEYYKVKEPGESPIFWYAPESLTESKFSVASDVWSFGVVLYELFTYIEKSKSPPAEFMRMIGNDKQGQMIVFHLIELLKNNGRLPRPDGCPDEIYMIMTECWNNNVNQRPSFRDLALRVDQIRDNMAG

IC50: 31 nM
Structure (SMILES): COc1ccccc1NC(=O)Cc1cn(O)c2ccccc12 [ZT55]
